Measurements taken from US20260347333A1, “NOVEL COMPOUND AND USE THEREOF” (PROTIER BIOTECH INC., priority 2023, published 2026).

molecular target: T1, Cereblon (CRBN) protein (Homo sapiens, UniProt Q96SW2); assay: CRBN binding affinity, E3scan (% Ctrl); conditions: lower % Ctrl = stronger binding, DMSO 100% Ctrl
T1 construct: DNA label for qPCR detection (not a peptide tag); host or cells: HEK-293
Description: As used herein, the term “Cereblon (CRBN)” refers to a protein encoded by a human CRBN gene located at a cytogenetic location of 3p26.2 and a molecular location between base pairs 3,148,489 and 3,179,716 on chromosome 3 (UCSC Genome Browser on Human, December 2013 (GRCh38/hg38) assembly). CRBN is a substrate recognition component of a DCX (DDB1-CUL4-X-box) E3 protein ligase complex mediating ubiquitination and subsequent proteasomal degradation of a target protein. The DCX (DDB1-CUL4-X-box) E3 protein ligase complex may comprise at least CRBN, CUL4A, DDB1, and RBX1. The CRBN protein has two isoforms generated by alternative splicing: isoform 1 has 442 amino acids and a molecular weight of 50,546 Da; and isoform 2 has 441 amino acids and a molecular weight of 50,475 Da.
To confirm the binding affinity of the compounds synthesized in the Preparation Examples for a Cereblon (CRBN) protein, the following experiment was performed using E3scan™ from Eurofins.
Specifically, CRBN was produced using a HEK-293 cell line and labeled with DNA for qPCR detection. Streptavidin-coated magnetic beads were treated with a biotinylated small-molecule ligand at room temperature for 30 minutes to generate an affinity resin for E3scan analysis. The liganded beads were blocked with excess biotin and washed with a blocking buffer (SeaBlock (Pierce), 1% BSA, 0.05% Tween 20, 1 mM DTT) to remove unbound ligands and prevent non-specific binding. […] The test compound was prepared as a 100× stock in 100% DMSO and diluted directly into the assay solution. All reactions were performed in a polypropylene 384-well plate with a final reaction volume of 0.02 mL. […] Then, the beads were resuspended in an elution buffer (1×PBS, 0.05% Tween 20, 0.5 μM non-biotinylated affinity ligand) and incubated with shaking at room temperature for 30 minutes. The CRBN concentration in the eluate was measured by qPCR. […] A lower ‘% Ctrl’ indicates a stronger binding affinity.

T1 sequence (Q96SW2 whole entry): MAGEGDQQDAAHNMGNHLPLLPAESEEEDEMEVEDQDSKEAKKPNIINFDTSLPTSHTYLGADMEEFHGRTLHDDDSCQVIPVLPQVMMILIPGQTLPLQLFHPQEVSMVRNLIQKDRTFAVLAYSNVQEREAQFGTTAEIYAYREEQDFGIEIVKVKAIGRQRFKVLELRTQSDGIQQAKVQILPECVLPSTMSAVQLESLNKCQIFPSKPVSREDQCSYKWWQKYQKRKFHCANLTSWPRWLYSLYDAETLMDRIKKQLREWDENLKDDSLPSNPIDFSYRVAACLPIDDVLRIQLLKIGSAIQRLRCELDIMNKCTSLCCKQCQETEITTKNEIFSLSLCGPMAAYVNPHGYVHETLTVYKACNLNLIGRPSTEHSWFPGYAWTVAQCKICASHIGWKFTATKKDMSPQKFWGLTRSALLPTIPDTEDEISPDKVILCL

Row | SMILES | remaining activity at 5 µM [%]
1 | O=C1CCC(N2Cc3cc(C(=O)c4cccc(Nc5ccccc5)c4)ccc3C2=O)C(=O)N1 (stereo not shown) [Compound 16, 3-(1-oxo-5-(3-(phenylamino)benzoyl)isoindolin-2-yl)piperidine-2,6-dione] | 0 to 0.1
2 | O=C1CCC(N2Cc3cc(C(=O)N4Cc5ccccc5C4)ccc3C2=O)C(=O)N1 (stereo not shown) [Compound 36] | 0 to 0.1
3 | O=C1CCC(N2Cc3cc(C(=O)n4ncc5ccccc54)ccc3C2=O)C(=O)N1 (stereo not shown) [Compound 6, 3-(5-(1H-indazole-1-carbonyl)-1-oxoisoindolin-2-yl)piperidine-2,6-dione] | 0 to 0.1
4 | O=C1CCC(N2Cc3cc(C(=O)N4Cc5cccc6cccc4c56)ccc3C2=O)C(=O)N1 (stereo not shown) [Compound 31, 3-(5-(1,2-dihydrobenzo[cd]indole-1-carbonyl)-1-oxoisoindolin-2-yl)piperidine-2,6-dione] | 0 to 0.1
5 | O=C1CCC(N2Cc3cc(C(=O)c4cccc(-c5ccccc5)c4)ccc3C2=O)C(=O)N1 (stereo not shown) [Compound 26, 3-(5-([1,1′-biphenyl]-3-carbonyl)-1-oxoisoindolin-2-yl)piperidine-2,6-dione] | 0 to 0.1
6 | O=C1CCC(N2Cc3cc(C(=O)c4ccc5cn[nH]c5c4)ccc3C2=O)C(=O)N1 (stereo not shown) [Compound 21, 3-(5-(1H-indazole-6-carbonyl)-1-oxoisoindolin-2-yl)piperidine-2,6-dione] | 0 to 0.1
7 | O=C1CCC(N2Cc3cc(C(=O)c4n[nH]c5ccccc45)ccc3C2=O)C(=O)N1 (stereo not shown) [Compound 17, 3-(5-(1H-indazole-3-carbonyl)-1-oxoisoindolin-2-yl)piperidine-2,6-dione] | 0 to 0.1
8 | O=C1CCC(N2Cc3cc(C(=O)c4c[nH]c5ccc(-c6ccccc6)cc45)ccc3C2=O)C(=O)N1 (stereo not shown) [Compound 24, 3-(1-oxo-5-(5-phenyl-1H-indole-3-carbonyl)isoindolin-2-yl)piperidine-2,6-dione] | 10 to 35
9 | O=C1CCC(N2Cc3cc(C(=O)N4CCCC4)ccc3C2=O)C(=O)N1 (stereo not shown) [Compound 7, 3-(1-oxo-5-(pyrrolidine-1-carbonyl)isoindolin-2-yl)piperidine-2,6-dione] | 0 to 0.1
10 | O=C1CCC(N2Cc3cc(C(=O)c4cn(-c5ccccc5)c5ccc(-c6ccccc6)cc45)ccc3C2=O)C(=O)N1 (stereo not shown) [Compound 25, 3-(5-(1,5-diphenyl-1H-indole-3-carbonyl)-1-oxoisoindolin-2-yl)piperidine-2,6-dione] | 10 to 35
11 | O=C1CCC(N2Cc3cc(C(=O)c4cc5ccccc5o4)ccc3C2=O)C(=O)N1 (stereo not shown) [Compound 34, 3-(5-(benzofuran-2-carbonyl)-1-oxoisoindolin-2-yl)piperidine-2,6-dione] | 0 to 0.1
12 | O=C1CCC(N2Cc3cc(C(=O)c4cc(-c5ccccc5)cs4)ccc3C2=O)C(=O)N1 (stereo not shown) [Compound 30, 3-(1-oxo-5-(4-phenylthiophene-2-carbonyl)isoindolin-2-yl)piperidine-2,6-dione] | 0 to 0.1
13 | O=C1CCC(N2Cc3cc(C(=O)C4CCN(Cc5ccccc5)CC4)ccc3C2=O)C(=O)N1 (stereo not shown) [Compound 11, 3-(5-(1-benzylpiperidine-4-carbonyl)-1-oxoisoindolin-2-yl)piperidine-2,6-dione] | 0 to 0.1
14 | O=C1CCC(N2Cc3cc(C(=O)c4ccc(Nc5ccccc5)cc4)ccc3C2=O)C(=O)N1 (stereo not shown) [Compound 15, 3-(1-oxo-5-(4-(phenylamino)benzoyl)isoindolin-2-yl)piperidine-2,6-dione] | 0 to 0.1
15 | O=C1CCC(N2Cc3cc(C(=O)c4coc5ccccc45)ccc3C2=O)C(=O)N1 (stereo not shown) [Compound 37, 3-(5-(benzofuran-3-carbonyl)-1-oxoisoindolin-2-yl)piperidine-2,6-dione] | 1 to 10
16 | O=C1CCC(N2C(=O)c3ccc(C(=O)c4cc5ccccc5[nH]4)cc3C2=O)C(=O)N1 (stereo not shown) [Compound 10, 2-(2,6-dioxopiperidin-3-yl)-5-(1H-indole-2-carbonyl)isoindoline-1,3-dione] | 1 to 10
17 | O=C1CCC(N2Cc3cc(C(=O)c4c[nH]c5ccccc45)ccc3C2=O)C(=O)N1 (stereo not shown) [Compound 4, 3-(5-(1H-indole-3-carbonyl)-1-oxoisoindolin-2-yl)piperidine-2,6-dione] | 0.1 to 1
18 | O=C1CCC(N2Cc3cc(C(=O)c4ccccn4)ccc3C2=O)C(=O)N1 (stereo not shown) [Compound 12, 3-(1-oxo-5-picolinoylisoindolin-2-yl)piperidine-2,6-dione] | 0 to 0.1
19 | O=C1CCC(N2Cc3cc(C(=O)c4cc(-c5ccccc5)c[nH]4)ccc3C2=O)C(=O)N1 (stereo not shown) [Compound 27, 3-(1-oxo-5-(4-phenyl-1H-pyrrole-2-carbonyl)isoindolin-2-yl)piperidine-2,6-dione] | 0 to 0.1
20 | O=C1CCC(N2Cc3cc(C(=O)c4ccccc4)ccc3C2=O)C(=O)N1 (stereo not shown) [Compound 1, 3-(5-benzoyl-1-oxoisoindolin-2-yl)piperidine-2,6-dione] | 1 to 10
21 | CNc1ccc2cc(C(=O)c3ccc4c(c3)CN(C3CCC(=O)NC3=O)C4=O)[nH]c2c1 (stereo not shown) [Compound 22, 3-(5-(6-(methylamino)-1H-indole-2-carbonyl)-1-oxoisoindolin-2-yl)piperidine-2,6-dione] | 0 to 0.1
22 | O=C1CCC(N2Cc3cc(C(=O)c4cn(-c5ccccc5)c5ccccc45)ccc3C2=O)C(=O)N1 (stereo not shown) [Compound 35, 3-(1-oxo-5-(1-phenyl-1H-indole-3-carbonyl)isoindolin-2-yl)piperidine-2,6-dione] | 0 to 0.1
23 | O=C1CCC(N2Cc3cc(C(=O)c4ccc(-c5ccccc5)[nH]4)ccc3C2=O)C(=O)N1 (stereo not shown) [Compound 28, 3-(1-oxo-5-(5-phenyl-1H-pyrrole-2-carbonyl)isoindolin-2-yl)piperidine-2,6-dione] | 1 to 10
24 | O=C1CCC(N2Cc3nc(C(=O)c4ccccc4)ccc3C2=O)C(=O)N1 (stereo not shown) [Compound 5, 3-(2-benzoyl-5-oxo-5,7-dihydro-6H-pyrrolo[3,4-b]pyridin-6-yl)piperidine-2,6-dione] | 1 to 10
25 | O=C1CCC(N2Cc3cc(C(=O)c4cc5ccccc5[nH]4)ccc3C2=O)C(=O)N1 (stereo not shown) [Compound 3, 3-(5-(1H-indole-2-carbonyl)-1-oxoisoindolin-2-yl)piperidine-2,6-dione] | 0 to 0.1
